Measurements from patent US11040958B2, “Triazole antimicrobial derivative, pharmaceutical composition and use thereof” (priority 2017, dated 2021).
Where two headings read alike, the source gives them in different places. Each block holds one compound with its values, some of them ahead of it.

Tests used:
[1] = In vitro metabolic stability in rat plasma; format: in vitro ADME; settings: 37°C, compound 10 μM
Procedure: The two reaction systems were set up three samples in parallel, while each sample was taken in an amount of 100 μL at 1 min, 2 mins, 5 mins, 15 mins, and 30 mins after the reaction, added to the centrifuge tube containing 400 μL of 0° C. pre-cooled internal standard working fluid and terminated the reaction. The sample was mixed by vortex for 1 min, centrifuged at 10,000×g for 10 mins in a 4° C. pre-cooled high-speed centrifuge. The supernatant was taken for HPLC detection. […] Concentration of mother liquor of compounds: 1 mM […]

[2] = In vitro metabolic stability in human intestinal S9; format: in vitro ADME; settings: 37°C, S9 1 mg/mL, compound 10 μM, NADPH regeneration system
Procedure: (§1) The two reaction systems were set up three samples in parallel, while each sample was taken in an amount of 100 μL at 1 min, 2 mins, 5 mins, 15 mins, and 30 mins after the reaction, added to the centrifuge tube containing 400 μL of 0° C. pre-cooled internal standard working fluid and terminated the reaction. The sample was mixed by vortex for 1 min, centrifuged at 10,000×g for 10 mins in a 4° C. pre-cooled high-speed centrifuge. The supernatant was taken for HPLC detection. […] Concentration of mother liquor of compounds: 1 mM […] [table]

[3] = In vitro metabolic stability in rat intestinal S9; format: in vitro ADME; settings: 37°C, S9 1 mg/mL, compound 10 μM, NADPH regeneration system
Procedure: as §1

[4] = Solubility test in deionized water (HPLC, external calibration); format: physicochemical; settings: for solubility at 30 min: 25 °C, thermodynamic from solid
Procedure: Experimental condition: 25±2° C.
Dissolving medium: deionized water
Experimental method: 1 mg voriconazole and appropriate amount of each compound were weighed, placed in 1 ml deionized water separately, shaken vigorously for 30 s every 5 mins for 30 mins.

[5] = Solid stability test (25°C, RH 60%, 30 days); format: physicochemical; settings: 25°C±2°C, relative humidity 60%±2%
Procedure: Experimental conditions: 25° C.±2° C., relative humidity 60%±2%
Experimental instrument: Agilent 1260 HPLC; chamber for stability test
Experimental method: each compound of the present disclosure was packaged (the inner packaging material was a penicillin bottle; the outer packaging material was a double-layer aluminum foil bag, and a desiccant was added inside and outside the package), placed in the chamber for stability test, at a temperature of 25° C.±2° C. and a relative humidity of 60%±2%. The degradation situation of the compounds for 30 days was examined. The contents of total impurities before and after 30 days of each compound were compared and the results were as follows: […]

[6] = system: Candida albicans ATCC10231; assay: Systemic fungal infection in mice, intravenous administration, survival; format: in vivo; settings: ICR mice, tail vein, 5 mg/kg (calculated as voriconazole) once daily for 5 days
Procedure: (§2) ICR mice, weighing 18-22 g, male, provided by the Hubei Experimental Animal Center.
(§3) The standard strain Candida albicans was purchased from the American Type Culture Collection, and the strain number was ATCC10231.
Before the experiment, a small amount of Candida albicans was picked from the SDA medium preserved at 4° C. by inoculation circle, and inoculated into 1 ml YPD (Yeast Extract Peptone Dextrose Medium, the same below) culture medium, under shake cultivation at 30° C., 200 rpm, activated for 16 hours to make the fungus in the late stage of the exponential growth phase. Blood cell counting plate was used to count. The concentration of the broth was adjusted to 1*10^3-5*10^3 CFU/ml with RPMI1640 (Roswell Park Memorial Institute 1640, the same below) culture medium. The Candida albicans monoclone on the SDA plate was picked and inoculated into 1 ml YPD medium, cultured at 35° C., 200 rpm for 16 hours to the late exponential growth phase, 1% of which was then inoculated in fresh medium for 6 hours, centrifuged at 1000×g for 5 mins, washed three times with saline until the supernatant was colorless, while hemocytometer was used to count. The cell concentration was adjusted to 5*10^6/ml. The tail vein injection of 0.1 ml/10 g was carried out to cause a systemic fungal infection in mice. The mice were randomized into groups of 10 each. Since voriconazole was insoluble in vehicle (physiological saline), the mice of the voriconazole group in the test were injected a commercially available voriconazole (Pfizer, product lot number Z467001), that is, sulfobutyl ether-β-cyclodextrin used as a solubilizer, while other groups used physiological saline as a solvent. After establishing a systemic fungal infection model in mice for 2 hours, each administration group was administered with 5 mg/kg (calculated as voriconazole) drug in the tail vein, with the volume for administration of 0.1 ml/10 g. The mice in the model group were administered 0.1 ml/10 g of 0.9% sodium chloride solution, once daily, for 5 consecutive days. The death situation of the mice was inspected and the survival time was recorded. After a total of 7 days of observation, all dead mice were treated with fire using ethanol.

[7] = Pharmacokinetics after single intravenous administration in rats (plasma voriconazole); settings: rat, in vivo, 2.5 mg/kg
Procedure: Dosage for administration: 2.5 mg/kg (calculated as voriconazole)
Dosing volume for administration: 2.5 ml/kg
Drug concentration: 1 mg/mL (calculated as voriconazole)
Route of administration: tail vein injection Experimental animals: SD rats, SPF grade, weighing 180-220 g, half male and half female; the SD rats were randomized into groups of 6 animals each, three males and three females in each group. Experimental method: Blood samples were collected at different time points after tail vein administration, and the plasma concentrations of voriconazole were measured.

[8] = system: Candida albicans ATCC10231; assay: Systemic fungal infection in mice, administration by gavage, survival; format: in vivo; settings: ICR mice, 5 mg/kg (calculated as voriconazole) once daily for 5 days
Procedure: as §2, §3
Before the experiment, a small amount of Candida albicans was picked from the SDA medium preserved at 4° C. by inoculation circle, inoculated into 1 ml of YPD culture medium, and cultured at 30° C. while being shaken at 200 rpm for 16 hours to make the fungus in the late stage of exponential growth. Blood cell counting plate was used to count, and the concentration of the broth was adjusted to 1*10^3−5*10^3 CFU/ml with RPMI1640 medium. The Candida albicans monoclone on the SDA plate was picked, inoculated into 1 ml YPD medium, cultured at 35° C., 200 rpm for 16 hours to the late exponential growth phase, 1% of which was then inoculated in fresh medium for 6 hours, centrifuged at 1000×g for 5 mins, washed three times with saline until the supernatant was colorless, while hemocytometer was used to count. The cell concentration was adjusted to 5*10^6/ml. The tail vein injection of 0.1 ml/10 g was carried out to cause a systemic fungal infection in mice. The mice were randomized into groups of 10 each. Voriconazole used was in the form of a suspension prepared with CMC-Na (Shanghai Panhong Chemical Technology Co., Ltd.), while other tested drugs were dissolved in saline and sonicated until clarified for administration. After establishing a systemic fungal infection model in mice for 2 hours, each group was administered by gavage with 5 mg/kg (calculated as voriconazole) drug, with the volume for administration of 0.1 ml/10 g. The mice in the model group were administered 0.1 ml/10 g of 0.9% sodium chloride solution, once daily, for 5 consecutive days. The death situation of the mice was inspected and the survival time was recorded. After a total of 7 days of observation, all dead mice were treated with fire using ethanol.

[9] = Pharmacokinetics after single gastrointestinal (gavage) administration in rats (plasma voriconazole); format: in vivo; settings: SD rats, 2.5 mg/kg (calculated as voriconazole)
Procedure: Dosing volume for administration: 10 ml/kg
Solvent medium for administration: except for the positive voriconazole group using CMC-Na, the other groups using normal saline
Route of administration: gavage

[10] = In vitro metabolic stability in human plasma; format: in vitro ADME; settings: human, plasma; 37°C, compound 10 μM; read-out: Human plasma T1/2
Procedure: The two reaction systems were set up three samples in parallel, while each sample was taken in an amount of 100 μL at 1 min, 2 mins, 5 mins, 15 mins, and 30 mins after the reaction, added to the centrifuge tube containing 400 μL of 0° C. pre-cooled internal standard working fluid and terminated the reaction. The sample was mixed by vortex for 1 min, centrifuged at 10,000×g for 10 mins in a 4° C. pre-cooled high-speed centrifuge. The supernatant was taken for HPLC detection.

- Rat plasma T1/2 [1]: 8.25 ± 1.28 min
- Human intestinal S9 T1/2 [2]: 18.21 ± 2.04 min
- Rat intestinal S9 T1/2 [3]: 26.52 ± 3.69 min
- Solubility [4]: >50 mg/mL
Structure (SMILES): CC(OC(=O)N(C)c1ncccc1COC(=O)[C@@H](N)CCN)[n+]1cnn(C[C@](O)(c2ccc(F)cc2F)[C@@H](C)c2ncncc2F)c1.[Cl-] (stereo partly shown) [QR16005]

Structure (SMILES): CC(OC(=O)N(C)c1ccccc1COC(=O)[C@@H](N)CCCN)[n+]1cnn(C[C@](O)(c2ccc(F)cc2F)[C@@H](C)c2ncncc2F)c1.[Cl-] (stereo partly shown) [QR16007]
- Solubility ([4]; deionized water, 25±2°C): >50 mg/mL
- Content increase of total impurity (25° C., placed for 30 days) [5]: 0.73%
- survival rate of mice, day 1 ([6]; day 1): 100%
- survival rate of mice, day 2 ([6]; day 2): 100%
- survival rate of mice, day 3 ([6]; day 3): 100%
- survival rate of mice, day 4 ([6]; day 4): 100%
- survival rate of mice, day 5 ([6]; day 5): 100%
- survival rate of mice, day 6 ([6]; day 6): 90%
- AUClast [7]: 10278 ± 3225 ng·h/mL
- T1/2 [7]: 2.88 ± 1.22 h

Structure (SMILES): CC(OC(=O)N(C)c1ncccc1COC(=O)[C@@H](N)CCCNC(N)=O)[n+]1cnn(C[C@](O)(c2ccc(F)cc2F)[C@@H](C)c2ncncc2F)c1.[Cl-] (stereo partly shown) [QR16009]
- survival rate of mice, day 1 [8]: 100%
- survival rate of mice, day 2 [8]: 80%
- survival rate of mice, day 3 [8]: 80%
- survival rate of mice, day 4 [8]: 70%
- survival rate of mice, day 5 [8]: 70%
- survival rate of mice, day 6 [8]: 70%
- survival rate of mice, day 7 ([8]; day 7): 70%
- AUClast [9]: 7225 ± 1310 ng·h/mL
- Cmax [9]: 925 ± 121 ng/mL
- T1/2 [9]: 1.98 ± 0.87 h
- Solubility ([4]; deionized water, 25±2°C): >50 mg/mL
- Content increase of total impurity (25° C., placed for 30 days) [5]: 0.71%
- T1/2 [7]: similar

- half-life at 10 µM [10]: 26 ± 2.39 min
- half-life at 10 µM ([1]; rat, plasma, read-out: Rat plasma T1/2): 29.5 ± 7.85 min
- half-life at 10 µM ([2]; human, intestinal S9, read-out: Human intestinal S9 T1/2): 43.2 ± 1.03 min
- half-life at 10 µM ([3]; rat, intestinal S9, pH 7.4, read-out: Rat intestinal S9 T1/2): 56 ± 10.3 min
- solubility at 30 min ([4]; deionized water, 25±2°C): > 50 mg/mL
- T1/2 [7]: similar
Structure (SMILES): CC(OC(=O)N(C)c1ncccc1CN)[n+]1cnn(C[C@](O)(c2ccc(F)cc2F)[C@@H](C)c2ncncc2F)c1 (stereo partly shown) [QR16022]

Structure (SMILES): CNCc1cccnc1N(C)C(=O)OC(C)[n+]1cnn(C[C@](O)(c2ccc(F)cc2F)[C@@H](C)c2ncncc2F)c1 (stereo partly shown) [QR16023]
- survival rate of mice, day 1 [8]: 100%
- survival rate of mice, day 2 [8]: 90%
- survival rate of mice, day 3 [8]: 70%
- survival rate of mice, day 4 [8]: 70%
- survival rate of mice, day 5 [8]: 60%
- survival rate of mice, day 6 [8]: 60%
- survival rate of mice, day 7 ([8]; day 7, 5 mg/kg): same with the positive drug voriconazole group
- solubility at 30 min ([4]; deionized water, 25±2°C): > 50 mg/mL
- Content increase of total impurity (25° C., placed for 30 days) [5]: 2.63%
- T1/2 [7]: similar

Structure (SMILES): CC(OC(=O)OCCOCCOP(=O)(O)O)[n+]1cnn(C[C@](O)(c2ccc(F)cc2F)[C@@H](C)c2ncncc2F)c1 (stereo partly shown) [QR16030]
- survival rate of mice, day 1 [8]: 100%
- survival rate of mice, day 2 [8]: 90%
- survival rate of mice, day 3 [8]: 80%
- survival rate of mice, day 4 [8]: 70%
- survival rate of mice, day 5 [8]: 60%
- survival rate of mice, day 6 [8]: 50%
- AUClast [9]: 4324 ± 1362 ng·h/mL
- T1/2 [9]: 2.54 ± 1.05 h
- Solubility ([4]; deionized water, 25±2°C): >50 mg/mL
- Content increase of total impurity (25° C., placed for 30 days) [5]: 0.94%

Structure (SMILES): CN[C@@H](CSC(=O)OC(C)[n+]1cnn(C[C@](O)(c2ccc(F)cc2F)[C@@H](C)c2ncncc2F)c1)C(=O)O.Cl.[Cl-] (stereo partly shown) [QR16035]
- Rat plasma T1/2 [1]: 11.85 ± 3.77 min
- Human intestinal S9 T1/2 [2]: 29.12 ± 2.09 min
- Rat intestinal S9 T1/2 [3]: 35.62 ± 8.12 min
- Content increase of total impurity (25° C., placed for 30 days) [5]: 1.21%
- AUClast [7]: 8256 ± 1256 ng·h/mL
